These results are taken from patent publication US12358948B2, “Neurotensinergic agonists and methods of using same preventing or treating pain” (priority 2019, dated 2025).

One test has as its target T1, hNTS2 receptor (Homo sapiens, UniProt O95665).
T1 construct: membranes prepared from them
Kind of test: Competitive radioligand binding assay on the hNTS2 receptor. Particulars: for IC50: displacement of 125I-[Tyr3]-NT, membranes of 1321N1 cells expressing hNTS2, read-out: IC50 NTS2 (converted); for Selectivity: ratio IC50 for NTS1 : IC50 for NTS2. The procedure: (§1) CHO-K1 (Chinese Hamster Ovary) cells stably expressing hNTS1 and 1321N1 cells stably expressing hNTS2 (ES-690-C and ES-691-C from PerkinElmer, Montréal, Canada) were cultured respectively in Ham's F12 and in DMEM culture media. Culture media were supplemented with 10% FBS, 100 U/mL penicillin, 100 μg/mL streptomycin, 20 mM HEPES, and 0.4 mg/mL G418 at 37° C. in a humidified chamber at 5% CO2.
(§2) The cells expressing hNTS1 were frozen when they reached 80% confluency. They were scrapped off the dish with 10 mM Tris buffer, 1 mM EDTA, pH 7.5 and centrifuged at 15,000 g for 5 min at 4° C. The pellet was then re-suspended in 1 mL binding buffer. The cells expressing hNTS2 were also frozen when they reached 80% confluency. They were scraped off the dish with PBS, 0.5 mM EDTA, pH 7.5 and sonicated for 5 minutes (pulse 30 s/5 s off, amplitude 40%). They were ultracentrifuged at 100 000 g for 60 minutes at 4° C. The pellet was re-suspended in 1 mL freezing buffer (PBS, glycerol, 0.5 mM EDTA), sonicated for 1 minute (pulse 30 s/5 s off, amplitude 50%) and further diluted in binding buffer. Competitive radioligand binding experiments were performed by incubating 15 μg of cell membranes expressing the hNTS1 receptor with […] of ^125I-[Tyr^3]-NT (2200 Ci/mmol) or 50 μg of cell membranes expressing the hNTS2 receptor with […] of ^125I-[Tyr^3]-NT in binding buffer (50 mM Tris-HCl, pH 7.5, 0.2% BSA) in the presence of increasing concentrations of analogues ranging from 10^−11 to 10^−4 M for 60 min at 25° C. After incubation, the binding reaction mixture was transferred in PEI-coated 96-well filter plates (glass fiber filters GF/B, Millipore, Billerica, MA). Reaction was terminated by filtration, and plates were washed three times with 200 μL ice-cold binding buffer. Glass filters were then counted using a γ-counter (2470 Wizard2, PerkinElmer, Mississauga, Ontario, Canada). Non-specific binding was measured in the presence of 10^−5 M unlabeled NT (8-13) and represented less than 5% of total binding. IC50 values were determined from competition curves as the unlabeled ligand concentration inhibiting 50% of ^125I-[Tyr^3]-NT-specific binding.
(§3) Competitive radioligand binding data were plotted using the nonlinear regression One-site-Fit Log(IC50) and represented the mean±SEM of at least three independent experiments in triplicates.

The next test addresses T2, hNTS1 receptor (Homo sapiens, UniProt P30989).
T2 construct: membranes prepared from them
Kind of test: Competitive radioligand binding assay on the hNTS1 receptor. Particulars: displacement of 125I-[Tyr3]-NT, membranes of CHO-K1 cells expressing hNTS1; read-out: IC50 NTS1. The procedure:
as §1, §2, §3

pIC50: −log10 of the molar value. Where a SMILES comes first, the peptide text is derived from it. Bridges are numbered along the chain shown (N, C = ends). [ ]: non-standard residue; d: D form. Phe(4-CN) = N#Cc1ccc(C[C@H](N)C(=O)O)cc1; Phe(4-F) = N[C@@H](Cc1ccc(F)cc1)C(=O)O; AllylGly = C=CC[C@H](N)C(=O)O; R5 = C=CCCC[C@@](C)(N)C(=O)O; hLys = NCCCCC[C@H](N)C(=O)O; Nle = CCCC[C@H](N)C(=O)O; Orn = NCCC[C@H](N)C(=O)O; Dab = NCC[C@H](N)C(=O)O; Dap = NC[C@H](N)C(=O)O

T2 sequence (P30989 whole entry): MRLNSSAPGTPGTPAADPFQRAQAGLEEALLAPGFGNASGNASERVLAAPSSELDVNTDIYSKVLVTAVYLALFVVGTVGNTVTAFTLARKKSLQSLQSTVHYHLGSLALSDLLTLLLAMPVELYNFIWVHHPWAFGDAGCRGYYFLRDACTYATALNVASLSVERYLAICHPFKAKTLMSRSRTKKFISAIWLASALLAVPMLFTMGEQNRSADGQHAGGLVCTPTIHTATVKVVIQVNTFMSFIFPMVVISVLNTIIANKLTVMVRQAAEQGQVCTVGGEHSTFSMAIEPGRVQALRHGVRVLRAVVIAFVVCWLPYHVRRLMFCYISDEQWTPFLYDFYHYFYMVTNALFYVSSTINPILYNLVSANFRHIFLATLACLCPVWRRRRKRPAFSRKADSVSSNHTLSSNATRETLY
T1 sequence (O95665 whole entry): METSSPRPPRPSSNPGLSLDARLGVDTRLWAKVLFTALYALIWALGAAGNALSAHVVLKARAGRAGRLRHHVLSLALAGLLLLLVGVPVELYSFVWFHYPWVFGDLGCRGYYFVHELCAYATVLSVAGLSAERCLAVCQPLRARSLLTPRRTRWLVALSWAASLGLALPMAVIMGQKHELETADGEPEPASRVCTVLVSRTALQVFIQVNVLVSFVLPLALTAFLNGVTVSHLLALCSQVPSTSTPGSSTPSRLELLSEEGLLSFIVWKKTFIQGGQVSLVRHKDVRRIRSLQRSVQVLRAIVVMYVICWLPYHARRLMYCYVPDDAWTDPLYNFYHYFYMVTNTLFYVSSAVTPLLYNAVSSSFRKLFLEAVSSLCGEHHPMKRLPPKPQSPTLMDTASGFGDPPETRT

For the compound `CC(C)C[C@H](NC(=O)[C@H](Cc1ccc(O)cc1)NC(=O)[C@@H]1CC=CC[C@H](N)C(=O)N[C@@H](CCCCN)C(=O)N[C@H](CCCCN)C(=O)N1)C(=O)O` [compound 54, c[G(All)KK*G(All)]YL] (H-[AllylGly]K[dK][AllylGly]YL-OH; staple 1-4), on hNTS2 receptor, the half-maximal inhibitory concentration (IC50) (in general, the concentration at which inhibition is half-maximal) was 0.321 µM and the Selectivity is reported as more than 311.9. The pIC50 (as a rule, the IC50 on a negative log10 scale, so that one unit is a factor of ten) on hNTS1 receptor is less than 4.00.

In the case of `CC(C)C[C@H](NC(=O)[C@H](Cc1ccc(O)cc1)NC(=O)[C@@H]1CCC(=O)NCCC[C@H](N)C(=O)N[C@@H](CCCCN)C(=O)N[C@@H](CCCCN)C(=O)N1)C(=O)O` [compound 100, c[OrnKKE]YL] (H-[Orn]KKEYL-OH; lactam 1-4), on hNTS2 receptor, the concentration for half-maximal inhibition (IC50) was 4.5 µM and the Selectivity is reported as more than 22. The pIC50 on hNTS1 receptor was less than 4.00.

Consider `CCCC[C@@H]1NC(=O)[C@@H](N)CC=CC[C@@H](C(=O)N[C@@H](Cc2ccc(O)cc2)C(=O)N[C@@H](CC(C)C)C(=O)O)NC(=O)[C@H](CCCCN)NC1=O` [compound 85, c[G(All)NleKG(All)]YL] (H-[AllylGly][Nle]K[AllylGly]YL-OH; staple 1-4), for which, on hNTS2 receptor, the IC50 is 1.07 µM and the Selectivity is reported as more than 93. Besides, the negative-log IC50 (pIC50) at hNTS1 receptor is less than 4.00.

Turning to `CC(C)C[C@H](NC(=O)[C@H](Cc1ccc(C#N)cc1)NC(=O)[C@@H]1CC=CC[C@H](N)C(=O)N[C@@H](CCCCN)C(=O)N[C@@H](CCCCN)C(=O)N1)C(=O)O` [compound 118, c[G(All)KKG(All)]F(4-cyano)L] (H-[AllylGly]KK[AllylGly][Phe(4-CN)]L-OH; staple 1-4), at hNTS2 receptor, the IC50 is 0.0578 µM and the Selectivity is given as more than 1729. The negative logarithm of the IC50 (pIC50) at hNTS1 receptor is less than 4.00.

For the compound `CC(C)C[C@H](NC(=O)[C@H](Cc1ccc(F)cc1)NC(=O)[C@@H]1CC=CC[C@H](N)C(=O)N[C@@H](CCCCN)C(=O)N[C@@H](CCCCN)C(=O)N1)C(=O)O` [compound 77, c[G(All)KKG(All)]F(4-fluoro)L] (H-[AllylGly]KK[AllylGly][Phe(4-F)]L-OH; staple 1-4), on hNTS2 receptor, the IC50 is 0.0956 µM and the Selectivity is given as more than 1046. For the same compound, the pIC50 on hNTS1 receptor was less than 4.00.

Take `CC(C)C[C@H](NC(=O)[C@H](Cc1ccc(O)cc1)NC(=O)[C@@H]1CCCCNC(=O)CC[C@H](N)C(=O)N[C@@H](CCCCN)C(=O)N[C@@H](CCCCN)C(=O)N1)C(=O)O` [compound 108, c[EKKK]YL] (H-EKKKYL-OH; lactam 1-4): on hNTS1 receptor, the negative-log IC50 (pIC50) was less than 4.00.

Regarding `CC(C)C[C@H](NC(=O)[C@H](Cc1ccc(O)cc1)NC(=O)[C@@H]1CC=CC[C@H](N)C(=O)N[C@@H](CCC(=O)O)C(=O)N[C@@H](CCCCN)C(=O)N1)C(=O)O` [compound 88, c[G(All)EKG(All)]YL] (H-[AllylGly]EK[AllylGly]YL-OH; staple 1-4), at hNTS2 receptor, the IC50 is 10.6 µM and the Selectivity was more than 9.4. In addition, the negative logarithm of the IC50 (pIC50) on hNTS1 receptor was less than 4.00.

As for `CC(C)C[C@H](NC(=O)[C@H](Cc1ccc(O)cc1)NC(=O)[C@@H]1CC=CC[C@H](N)C(=O)N[C@H](CCCCN)C(=O)N[C@@H](CCCCN)C(=O)N1)C(=O)O` [compound 82, c[G(All)K*KG(All)]YL] (H-[AllylGly][dK]K[AllylGly]YL-OH; staple 1-4), at hNTS2 receptor, the IC50 is 0.621 µM and the Selectivity is listed as more than 161. For the same compound, the pIC50 on hNTS1 receptor is less than 4.00.

As for `CC(C)C[C@H](NC(=O)[C@H](Cc1ccc(O)cc1)NC(=O)[C@@H]1CC=CC[C@H](N)C(=O)N[C@@H](CCN)C(=O)N[C@@H](CCCCN)C(=O)N1)C(=O)O` [compound 80, c[G(All)DabKG(All)]YL] (H-[AllylGly][Dab]K[AllylGly]YL-OH; staple 1-4), on hNTS2 receptor, the concentration for half-maximal inhibition (IC50) was 0.137 µM and the Selectivity was more than 729. Further, the negative logarithm of the IC50 (pIC50) on hNTS1 receptor is less than 4.00.

In the case of `CC(C)C[C@@H](NC(=O)[C@H](Cc1ccc(O)cc1)NC(=O)[C@@H]1CC=CC[C@H](N)C(=O)N[C@@H](CCCCN)C(=O)N[C@@H](CCCCN)C(=O)N1)C(=O)O` [compound 38, c[G(All)KKG(All)]YL*] (H-[AllylGly]KK[AllylGly]Y[dL]-OH; staple 1-4), on hNTS2 receptor, the half-maximal inhibitory concentration (IC50) is 240 µM and the Selectivity is more than 2.4. Also, the negative logarithm of the IC50 (pIC50) at hNTS1 receptor was less than 4.00.

Turning to `CC(C)C[C@H](NC(=O)[C@H](Cc1ccc(O)cc1)NC(=O)[C@@H]1CC=CC[C@H](N)C(=O)N[C@@H](CCCCN)C(=O)N[C@@H](CCN)C(=O)N1)C(=O)O` [compound 52, c[G(All)KDabG(All)]YL] (H-[AllylGly]K[Dab][AllylGly]YL-OH; staple 1-4), at hNTS2 receptor, the IC50 was 0.244 µM and the Selectivity is listed as more than 409.3. Also, on hNTS1 receptor, the pIC50 was less than 4.00.

In the case of `CC(C)C[C@H](NC(=O)[C@H](Cc1ccc(O)cc1)NC(=O)[C@@H]1CC=CCCC[C@@](C)(N)C(=O)N[C@@H](CCCCN)C(=O)N[C@@H](CCCCN)C(=O)N1)C(=O)O` [compound 90, c[G*(alpha-Me-(4-Pentenyl))KKG(All)]YL] (H-[R5]KK[AllylGly]YL-OH; staple 1-4), at hNTS2 receptor, the IC50 was 0.0769 µM and the Selectivity is given as more than 1300. Further, on hNTS1 receptor, the pIC50 is less than 4.00.

On to `CC(C)C[C@H](NC(=O)[C@H](Cc1ccc(O)cc1)NC(=O)[C@@H]1CC=CC[C@H](N)C(=O)N[C@@H](CCCCCN)C(=O)N[C@@H](CCCCCN)C(=O)N1)C(=O)O` [compound 151, c[G(All)K(homo)K (homo)G(All)]YL] (H-[AllylGly][hLys][hLys][AllylGly]YL-OH; staple 1-4), for which, at hNTS2 receptor, the IC50 was 0.104 µM and the Selectivity is listed as 962. In addition, the negative-log IC50 (pIC50) at hNTS1 receptor was less than 4.00.

`CC(C)C[C@H](NC(=O)[C@H](Cc1ccc(O)cc1)NC(=O)[C@@H]1CCCCNC(=O)C[C@H](N)C(=O)N[C@@H](CCCCN)C(=O)N[C@@H](CCCCN)C(=O)N1)C(=O)O` [compound 109, c[DKKK]YL] (H-DKKKYL-OH; lactam 1-4): the negative-log IC50 (pIC50) at hNTS1 receptor was less than 4.00.

In the case of `CCCC[C@H](NC(=O)[C@H](Cc1ccc(O)cc1)NC(=O)[C@@H]1CC=CC[C@H](N)C(=O)N[C@@H](CCCCN)C(=O)N[C@@H](CCCCN)C(=O)N1)C(=O)O` [compound 28, c[G(All)KKG(All)]YNle] (H-[AllylGly]KK[AllylGly]Y[Nle]-OH; staple 1-4), at hNTS2 receptor, the 50% inhibitory concentration (IC50) was 0.381 µM and the Selectivity was more than 262. In addition, at hNTS1 receptor, the negative-log IC50 (pIC50) is less than 4.00.

For the compound `CC(C)C[C@H](NC(=O)[C@H](Cc1ccc(O)cc1)NC(=O)[C@@H]1CNC(=O)CC[C@H](N)C(=O)N[C@@H](CCCCN)C(=O)N[C@@H](CCCCN)C(=O)N1)C(=O)O` [compound 102, c[EKKDap]YL] (H-EKK[Dap]YL-OH; lactam 1-4), the negative-log IC50 (pIC50) on hNTS1 receptor was less than 4.00.

Regarding `CC(C)C[C@H](NC(=O)[C@H](Cc1ccc(O)cc1)NC(=O)[C@@H]1CCCNC(=O)CC[C@H](N)C(=O)N[C@@H](CCCCN)C(=O)N[C@@H](CCCCN)C(=O)N1)C(=O)O` [compound 106, c[EKKOrn]YL] (H-EKK[Orn]YL-OH; lactam 1-4), the pIC50 on hNTS1 receptor is less than 4.00.

As to `CC(=O)Oc1ccc(C[C@H](NC(=O)[C@@H]2CC=CC[C@H](N)C(=O)N[C@@H](CCCCN)C(=O)N[C@@H](CCCCN)C(=O)N2)C(=O)N[C@@H](CC(C)C)C(=O)O)cc1` [compound 15, c[G(All)KKG(All)]Y(OAc)L] (H-[AllylGly]KK[AllylGly]Y(Ac)L-OH; staple 1-4), the negative-log IC50 (pIC50) at hNTS1 receptor was less than 4.00.

For the compound `CC(C)C[C@H](NC(=O)[C@H](Cc1ccc(O)cc1)NC(=O)[C@@H]1CCCNC(=O)C[C@H](N)C(=O)N[C@@H](CCCCN)C(=O)N[C@@H](CCCCN)C(=O)N1)C(=O)O` [compound 107, c[DKKOrn]YL] (H-DKK[Orn]YL-OH; lactam 1-4), on hNTS1 receptor, the pIC50 was less than 4.00.
